Measurements published in article PMC12022980, “Rational Design of PROTAC Linkers Featuring Ferrocene as a Molecular Hinge to Enable Dynamic Conformational Changes” (Journal of the American Chemical Society, 2025).

Molecular target: VCB protein complex (VHL:ElonginC:ElonginB) (Homo sapiens, UniProt P40337)
Test: Native gel electrophoresis assay for ternary complex formation
Assay type: binding
Conditions: VCB incubated with PROTAC 30 min, room temperature
Text: To monitor ternary complex formation mediated by FerroTACs, we leveraged native gel electrophoresis assay, a methodology recently validated to assess VHL dimerization by homo-PROTACs.[41] This in vitro approach serves as a rapid semiqualitative tool to evaluate homo-FerroTAC activity in promoting stable ternary protein complexes. The technique is user-friendly, suitable for higher throughput, and requires lower protein quantities compared to other biophysical methods. The recombinant VCB protein complex (VHL:ElonginC:ElonginB) was incubated with the corresponding Homo-PROTACs (CM11, AS1, cisAS1, AS2) for 30 min at room temperature, followed by non-denaturing gel electrophoresis. Ternary complex formation was indicated by an upward shift in the protein band on the gel, in agreement with the higher molecular weight of the complex. […]
antibody (LI-COR #926-32213, 1:5,000) or IRDye 800CW donkey anti-mouse secondary antibody, (Li-COR […]
room temperature and protected from light. Thereafter, the membranes were washed with TBS-T three times for 10 min, and protein bands were acquired using a ChemiDoc MP imaging system (Bio-Rad). Band quantification was performed using Image Lab software and reported as ratio of each protein band relative to the lane’s loading control. The values obtained were then normalised to vehicle control.
Native Gel Electrophoresis Assay
Gel casting. […]

VCB protein complex (VHL:ElonginC:ElonginB), sequence (P40337 54-213 limits assumed, species assumed): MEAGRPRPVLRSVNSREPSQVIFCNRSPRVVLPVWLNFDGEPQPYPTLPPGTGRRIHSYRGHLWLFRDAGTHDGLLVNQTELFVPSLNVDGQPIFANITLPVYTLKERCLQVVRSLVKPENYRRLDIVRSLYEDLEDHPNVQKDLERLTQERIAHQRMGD
VCB protein complex (VHL:ElonginC:ElonginB), sequence (Q15369 17-112 partner limits assumed, species assumed): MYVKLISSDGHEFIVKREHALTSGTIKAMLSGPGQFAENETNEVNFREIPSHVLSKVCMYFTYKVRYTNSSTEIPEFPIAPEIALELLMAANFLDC
VCB protein complex (VHL:ElonginC:ElonginB), sequence (Q15370 1-104 partner limits assumed, species assumed): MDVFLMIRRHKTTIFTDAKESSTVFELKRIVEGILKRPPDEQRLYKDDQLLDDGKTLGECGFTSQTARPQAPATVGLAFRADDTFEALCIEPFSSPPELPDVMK

## Cc1ncsc1-c1ccc(CNC(=O)[C@@H]2C[C@@H](O)CN2C(=O)[C@@H](NC(=O)COCCOCCOCCOCCOCCOCC(=O)N[C@H](C(=O)N2C[C@H](O)C[C@H]2C(=O)NCc2ccc(-c3scnc3C)cc2)C(C)(C)C)C(C)(C)C)cc1 [CM11]
  ternary complex formation, native gel (in words): induced formation of an up-shifted protein band
